Laboratory results reported in patent publication US5679695A, “Aryl and heteroaryl compounds having anti-retrovirus activity” (The University of Connecticut, priority 1995, dated 1997).
Values joined by “and” are separate entries in the source; they are usually repeats but may differ in a detail not shown here. Equal values may be shown once.

Tests used:
[1] = test system: Rauscher Murine Leukemia Virus (MLV); test: Rauscher MuLV UV-XC plaque assay; format: cell-based
Protocol: One such method is used to determine the effectiveness of representative compounds and compositions of the present invention in the Rauscher and LP-BMS Murine Leukemia Virus (MLV) In Vitro Assays.
SC-1 cells were grown as monolayers in 6-well tissue culture plates (Falcon). The a test compound was added to the cultures at the time of virus inoculation (approximately 24 hours after the cells were seeded) and was present for 3 days, at which time the cultures were irradiated with UV light. All compounds were solubilized in DMSO prior to dilution in grown medium. The highest concentration of DMSO present in the cultures was 0.05%. The test cultures (triplicate cultures per drug concentrate) each contained 2 ml of test compound diluted in growth medium (Eagle's minimum) essential medium (EMEM) supplemented with 5% heat-inactivated fetal bovine serum (FBS) and 0.5 ml of the virus suspension diluted to produce a countable number of plaques per well. The six virus control cultures contained 2 ml of medium and 0.5 ml of the virus suspension. NSC606170(ddC) was included as a positive control. drug. Drug cytotoxicity control cultures (containing test compound) but no virus and cell control culture (containing no test compound) or virus were included in the assay. On day 3 post-virus inoculation, the cultures were irradiated and XC cells were added. Three days after V-irradiation, the cultures were fixed with formalin and stained with 0.1% crystal violet. The plaques were counted with the aid of a dissection microscope.
Using the procedure, the following data is generated from representative compounds of the presnet invention.

HIV = test: Anti-HIV activity in MT-2; format: cell-based; details: Human immunodeficiency virus 1; MT-2, summary table; read-out: MT-2 EC50
Excerpt: Obviously, there is a structure activity relationship with respect to the efficacy of the compounds of the present invention. Factors that affect the relationship may include steric effects, electronic effects, (electron withdrawing or electron donating ability), resonance effects, hydrophobic,hydrophilic, hydrogen bonding parameters, etc. […] Based on the data, it has been determined that there is a direct correlation between the log (EC50)^-1 and the electronic effect of a substituent (a) or more precisely the sum of the sigma (σ) values. (The greater the electron withdrawing ability of a substituent, the higher the value of σ, while a better electron donating group has a lower value of σ.) There appears to be a direct correlation between log (EC50)^-1 and the Σσ; as the Σσ increases, so does the log (EC50)^-1. The addition of substituents to the diphenyl sulfone will affect the factors discussed hereinabove, thus both the log (EC50)^-1 and the Σσ will be affected. Thus for the diphenyl sulfone derivative [drawing 25] the relation is […]

[2] = Storage in a clear glass bottle; format: physicochemical; details: several weeks of storage in a clear glass bottle
[3] = XTT toxicity control, uninfected culture, CEM-V; format: cell-based; details: human, cem-v cells, read-out: Uninfected culture response
Protocol: (§1) Another assay for testing the efficacy of the compounds is the procedure* used in the National Cancer Institute's test for agents active against Human Immunodeficiency Virus (HIV). It is designed to detect agents acting at any stage of the virus reproductive cycle. The assay basically involves the killing of T4 lymphocytes by HIV. Small amounts of HIV are added to cells, and a complete cycle of virus reproduction is necessary to obtain the required cell killing. Agents that interact with virions, cells, or virus gene-products to interfere with viral activities will protect cells from cytolysis. The system is automated in several features to accommodate large numbers of candidate agents and is generally designed to detect anti-HIV activity. However, compounds that degenerate, or are rapidly metabolized in the culture conditions may not show activity in this screen. All tests are compared with at least one positive (e.g., AZT-treated) control done at the same time under identical conditions.
(§2) * Weislow. O. W., Kiser, R., Fine, D., Bader, J., Shoemaker, R. H., Boyd, M. R.: New soluble-formazan assay for HIV-1 cytopathic effects: application to high-flux screening of synthetic and natural products for AIDS-antiviral activity. J. Natl. Cancer Inst. 81:577-586, 1989.
(§3) 1. The Candidate agent is dissolved in dimethyl sulfoxide (unless otherwise instructed) then diluted 1:100 in cell culture medium before preparing serial half-log10 dilutions. T4 lymphocytes (CEM cell line) are added and after a brief interval HIV-1 added, resulting in a 1:200 final dilution of the compound. Uninfected cells with the compound serve as a toxicity control, and infected and uninfected cells without compound serve as basic controls.
(§4) 2. Cultures are incubated at 37° in a 5% carbon dioxide atmosphere for 6 days.
(§5) 3. The tetrazolium salt, XTT, is added to all wells, and cultures are incubated to allow formazan color development by viable cells.
(§6) 4. Individual wells are analyzed spectrophotometrically to quantitate formazan production, and in addition are viewed microscopically for detection of viable cells and confirmation of protective activity.
(§7) 5. Drug-treated virus-infected cells are compared with drug-treated noninfected cells and with other appropriate controls (untreated infected and untreated noninfected: cells, drug-containing wells without cells, etc.) on the same plate.
(§8) 6. Data are reviewed in comparison with other tests done at the same time and a determination about activity is made.

CEM-V = test: XTT toxicity control, uninfected culture, CEM-V; format: cell-based
Protocol: as §1, §2, §3, §4, §5, §6, §7, §8

[4] = Murine leukemia virus, SC-1, 1 × 10^-4 M, read-out: % Plaque Reduction
[5] = Murine leukemia virus, SC-1, 1 × 10^-5 M, read-out: % Plaque Reduction
[6] = Murine leukemia virus, SC-1, 1 × 10^-6 M, read-out: % Plaque Reduction
[7] = Murine leukemia virus, SC-1, 1 × 10^-7 M, read-out: % Plaque Reduction
[8] = Murine leukemia virus, SC-1, 1 × 10^-8 M, read-out: % Plaque Reduction

Q: For `Cc1ccc(S(=O)(=O)c2ccccc2[N+](=O)[O-])cc1` [Compound 2, 1-(4-Methylphenylsulfonyl)-2-nitrobenzene], which Mean plaque count ([1]; 1 × 10^-3 M) is on record?
A: 19

Q: And the “Plaque count, replicate #1” value ([1]; 1 × 10^-3 M)?
A: 20

Q: What about the “Plaque count, replicate #2” value ([1]; 1 × 10^-3 M) of the same molecule?
A: 20

Q: And the “Plaque count, replicate #3” value ([1]; 1 × 10^-3 M)?
A: 17

Q: What about the Mean plaque count ([1]; 1 × 10^-4 M) of the same molecule?
A: 8

Q: And the “Plaque count, replicate #1” value ([1]; 1 × 10^-4 M)?
A: 9

Q: And the “Plaque count, replicate #2” value ([1]; 1 × 10^-4 M)?
A: 8

Q: What about the “Plaque count, replicate #3” value ([1]; 1 × 10^-4 M) of the same molecule?
A: 8

Q: What about the Mean plaque count ([1]; 1 × 10^-5 M) of the same molecule?
A: 64

Q: And the “Plaque count, replicate #1” value ([1]; 1 × 10^-5 M)?
A: 60

Q: What about the “Plaque count, replicate #2” value ([1]; 1 × 10^-5 M) of the same molecule?
A: 69

Q: And the “Plaque count, replicate #3” value ([1]; 1 × 10^-5 M)?
A: 64

Q: What about the Mean plaque count ([1]; 1 × 10^-6 M) of the same molecule?
A: 61

Q: And the “Plaque count, replicate #1” value ([1]; 1 × 10^-6 M)?
A: 72

Q: And the “Plaque count, replicate #2” value ([1]; 1 × 10^-6 M)?
A: 53

Q: What about the “Plaque count, replicate #3” value ([1]; 1 × 10^-6 M) of the same molecule?
A: 5

Q: What about the Mean plaque count ([1]; 1 × 10^-7 M) of the same molecule?
A: 56

Q: What about the “Plaque count, replicate #1” value ([1]; 1 × 10^-7 M) of the same molecule?
A: 52

Q: And the “Plaque count, replicate #2” value ([1]; 1 × 10^-7 M)?
A: 57

Q: And the “Plaque count, replicate #3” value ([1]; 1 × 10^-7 M)?
A: 60

Q: What about the Mean plaque count ([1]; 1 × 10^-8 M) of the same molecule?
A: 60

Q: What about the “Plaque count, replicate #1” value ([1]; 1 × 10^-8 M) of the same molecule?
A: 62

Q: And the “Plaque count, replicate #2” value ([1]; 1 × 10^-8 M)?
A: 56

Q: What about the “Plaque count, replicate #3” value ([1]; 1 × 10^-8 M) of the same molecule?
A: 63

Q: What about the inhibition at 1000 µM ([1]; Murine leukemia virus, SC-1, 1 × 10^-3 M, read-out: % Plaque Reduction) of the same molecule?
A: 69%

Q: And the inhibition at 100 µM [1, 4]?
A: 87%

Q: What about the inhibition at 10 µM [1, 5] of the same molecule?
A: 0%

Q: And the inhibition at 1 µM [1, 6]?
A: 2%

Q: And the inhibition at 0.1 µM [1, 7]?
A: 9%

Q: What about the inhibition at 0.01 µM [1, 8] of the same molecule?
A: 3%

Q: And the EC50 (HIV)?
A: 3260 nM

Q: What about the “colour change on storage” value [2] of the same molecule?
A: turned light green

Q: For `O=[N+]([O-])c1ccccc1S(=O)(=O)c1ccccc1` [Compound 1, 1-Nitro-2-(phenylsulfonyl)benzene], which Mean plaque count ([1]; 1 × 10^-4 M) is on record?
A: 46

Q: What about the “Plaque count, replicate #1” value ([1]; 1 × 10^-4 M) of the same molecule?
A: 43

Q: And the “Plaque count, replicate #2” value ([1]; 1 × 10^-4 M)?
A: 48

Q: What about the “Plaque count, replicate #3” value ([1]; 1 × 10^-4 M) of the same molecule?
A: 46

Q: And the Mean plaque count ([1]; 1 × 10^-5 M)?
A: 53

Q: And the “Plaque count, replicate #1” value ([1]; 1 × 10^-5 M)?
A: 58

Q: And the “Plaque count, replicate #2” value ([1]; 1 × 10^-5 M)?
A: 42

Q: What about the “Plaque count, replicate #3” value ([1]; 1 × 10^-5 M) of the same molecule?
A: 60

Q: What about the Mean plaque count ([1]; 1 × 10^-6 M) of the same molecule?
A: 56

Q: And the “Plaque count, replicate #1” value ([1]; 1 × 10^-6 M)?
A: 71

Q: What about the “Plaque count, replicate #2” value ([1]; 1 × 10^-6 M) of the same molecule?
A: 43

Q: What about the “Plaque count, replicate #3” value ([1]; 1 × 10^-6 M) of the same molecule?
A: 53

Q: And the Mean plaque count ([1]; 1 × 10^-7 M)?
A: 64

Q: And the “Plaque count, replicate #1” value ([1]; 1 × 10^-7 M)?
A: 53

Q: And the “Plaque count, replicate #2” value ([1]; 1 × 10^-7 M)?
A: 69

Q: What about the “Plaque count, replicate #3” value ([1]; 1 × 10^-7 M) of the same molecule?
A: 71

Q: And the Mean plaque count ([1]; 1 × 10^-8 M)?
A: 65

Q: And the “Plaque count, replicate #1” value ([1]; 1 × 10^-8 M)?
A: 64

Q: What about the “Plaque count, replicate #2” value ([1]; 1 × 10^-8 M) of the same molecule?
A: 55

Q: What about the “Plaque count, replicate #3” value ([1]; 1 × 10^-8 M) of the same molecule?
A: 76

Q: And the inhibition at 100 µM [1, 4]?
A: 26%

Q: And the inhibition at 10 µM [1, 5]?
A: 14%

Q: And the inhibition at 1 µM [1, 6]?
A: 10%

Q: What about the inhibition at 0.1 µM [1, 7] of the same molecule?
A: 0%

Q: And the inhibition at 0.01 µM [1, 8]?
A: 0%

Q: And the viability at 0.179 µM ([3]; 1.79 × 10^-7 Molar)?
A: 123%

Q: What about the viability at 189 µM ([3]; 1.89 × 10^-4 Molar) of the same molecule?
A: 86.7%

Q: And the viability at 18.9 µM ([3]; 1.89 × 10^-5 Molar)?
A: 99.9%

Q: What about the viability at 1.89 µM ([3]; 1.89 × 10^-6 Molar) of the same molecule?
A: 97.9%

Q: And the viability at 0.19 µM ([3]; 1.90 × 10^-7 Molar)?
A: 96.9%

Q: And the viability at 59.8 µM ([3]; 5.98 × 10^-5 Molar)?
A: 105%

Q: What about the viability at 5.99 µM ([3]; 5.99 × 10^-6 Molar) of the same molecule?
A: 111%

Q: What about the viability at 0.6 µM ([3]; 6.00 × 10^-7 Molar) of the same molecule?
A: 90.4%

Q: And the viability at 0.0601 µM ([3]; 6.01 × 10^-8 Molar)?
A: 105%

Q: And the Uninfected culture response (CEM-V; 1.79 × 10^-7 Molar, 0.179 µM)?
A: 106.5%

Q: And the Uninfected culture response (CEM-V; 1.89 × 10^-4 Molar, 189 µM)?
A: 89.8%

Q: And the Uninfected culture response (CEM-V; 1.89 × 10^-5 Molar, 18.9 µM)?
A: 100.7%

Q: What about the Uninfected culture response (CEM-V; 1.89 × 10^-6 Molar, 1.89 µM) of the same molecule?
A: 104.6%

Q: And the Uninfected culture response (CEM-V; 1.90 × 10^-7 Molar, 0.19 µM)?
A: 105.1%

Q: And the Uninfected culture response (CEM-V; 5.67 × 10^-7 Molar, 0.567 µM)?
A: 112.5% and 77.9%

Q: And the Uninfected culture response (CEM-V; 5.68 × 10^-8 Molar, 0.0568 µM)?
A: 120.4% and 99.0%

Q: And the Uninfected culture response (CEM-V; 5.98 × 10^-5 Molar, 59.8 µM)?
A: 99.2%

Q: And the Uninfected culture response (CEM-V; 5.99 × 10^-6 Molar, 5.99 µM)?
A: 111.3%

Q: What about the Uninfected culture response (CEM-V; 6.00 × 10^-7 Molar, 0.6 µM) of the same molecule?
A: 98.3%

Q: And the Uninfected culture response (CEM-V; 6.01 × 10^-8 Molar, 0.0601 µM)?
A: 101.6%

Q: And the EC50 (HIV)?
A: 1160 nM
